Patent EP4173621A1 (priority 2021, dated 2023)
Read-outs that look alike come from different tables or passages of the source.

Columns and labels:
VSVg pseudotyped LV = assay type: cell-based
Calu3 = Calu3 cell line, within the 0-50µM range
in vitro [1] = settings: human
[2] = tested on: SARS-CoV-2 reference strain; assay: microbe, parasite or virus in culture; assay type: cell-based; settings: Severe acute respiratory syndrome coronavirus 2, Calu-3
A549-ACE2 = settings: A549 cell line, within the 0-50µM range
HEK293T-ACE2 = settings: HEK-293T cell line, within the 0-50µM range
[3] = tested on: SARS-CoV-2 reference strain; assay: microbe, parasite or virus in culture; assay type: cell-based
[4] = tested on: lentiviral vectors pseudotyped with the SARS-CoV-2 Spike protein (CoV-2 LV); assay: microbe, parasite or virus in culture; assay type: cell-based; settings: Severe acute respiratory syndrome coronavirus 2; 293-ACE2 cells (Table 1)
SARS-CoV-2 = assay: Antiviral activity summarised over all the cell lines; assay type: cell-based
in vitro [5] = settings: human; remark: listed apart in the source
Caco2 = Caco2 cell line, within the 0-50µM range
[6] = target: SARS-CoV-2 S-RBD(His)6 and human ACE2-Biot interaction (Severe acute respiratory syndrome coronavirus 2, UniProt P0DTC2); assay: AlphaLISA competition assay of the S-RBD/ACE2 interaction; assay type: binding, SARS-CoV-2 / human; settings: at 25 µM of drug; 3 nM of each protein
in vitro [7] = settings: human; remark: listed apart in the source

C(=C\c1nc2ccccc2s1)/c1cccc(N(c2cccc(/C=C/c3nc4ccccc4s3)c2)c2cccc(/C=C/c3nc4ccccc4s3)c2)c1 [TP m 3BTZ compound, Tris {3-(2-(benzothiazole-2-yl)vinylphenyl}amine)]
effect on the VSVg LVs infectivity (VSVg pseudotyped LV): without significant effect
cytotoxicity (MTT assay) (Calu3): no or poor cytoxoxicity
CC50 (in vitro [1]): > 50 µM
IC50 ([2]; Calu3 cells (Table 1), read-out: IC50): 5 µM
IC50 ([2]; Calu3 cells, SARS-CoV-2 reference strain, 24 hours, read-out: concentration leading to 50% inhibition of the viral replication): ~1 µM
cytotoxicity (MTT assay) (A549-ACE2): no or poor cytoxoxicity
cytotoxicity (MTT assay) (HEK293T-ACE2): no or poor cytoxoxicity
inhibition of the viral replication ([3]; A549-ACE2 cells, SARS-CoV-2 reference strain, 24 hours): induced an inhibition of the viral replication
IC50 ([3]; Severe acute respiratory syndrome coronavirus 2, A549-ACE2, A 549-ACE2 cells (Table 1)): 2.5 µM
IC50 [4]: 1 µM
IC50 (SARS-CoV-2; Severe acute respiratory syndrome coronavirus 2, among all the cell lines): 0.25 to 5 µM
selectivity indexes (SARS-CoV-2; among all the cell lines): > 10
selectivity index (SI) (SARS-CoV-2; based on apparent IC50 and CC50 in the different cell lines): higher than 50
CC50 (in vitro [5]): > 50 µM
cytotoxicity (MTT assay) (Caco2): no or poor cytoxoxicity
inhibition of the formation of the RBD/ACE2 complex (AlphaLISA) [6]: 50%
CC50 (in vitro [7]): > 50 µM
